EC50 data for 63 compounds are collected here from patent US20250034170A1, “SMALL MOLECULE MODULATORS OF GLUCOCEREBROSIDASE ACTIVITY AND USES THEREOF” (Vanqua Bio, Inc., priority 2021, published 2025).

A value given as a limit tells only on which side of the number the result lay.

In one assay the target is T1, GCase (Homo sapiens, UniProt P04062).
T1 construct: endogenous in cells; host or cells: HeLa cells
T1 sequence (P04062 40-536): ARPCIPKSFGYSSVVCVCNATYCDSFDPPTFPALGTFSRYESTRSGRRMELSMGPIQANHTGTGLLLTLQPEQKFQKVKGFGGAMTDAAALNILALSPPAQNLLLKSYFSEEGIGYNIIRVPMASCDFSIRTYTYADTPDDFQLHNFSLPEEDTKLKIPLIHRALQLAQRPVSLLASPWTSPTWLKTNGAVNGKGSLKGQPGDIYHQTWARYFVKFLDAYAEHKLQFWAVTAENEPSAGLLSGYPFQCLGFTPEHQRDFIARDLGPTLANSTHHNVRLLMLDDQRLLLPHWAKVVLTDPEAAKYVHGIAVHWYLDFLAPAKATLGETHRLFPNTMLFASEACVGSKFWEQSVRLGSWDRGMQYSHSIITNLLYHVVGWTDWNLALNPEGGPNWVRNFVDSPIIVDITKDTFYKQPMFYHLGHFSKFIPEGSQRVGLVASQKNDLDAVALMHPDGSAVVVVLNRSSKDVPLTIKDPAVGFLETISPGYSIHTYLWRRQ
The assay can be described thus: activation of GCase in a live cell PFB assay in HELA cells. The class given is cell-based. Particulars: EC50 given as range classes. How it is done:
Exemplary compounds were evaluated for activation of GCase in a live cell PFB assay in HELA cells (essentially as described in Ysselstein et al., “LRRK2 kinase activity regulates lysosomal glucocerebrosidase in neurons derived from Parkinson's disease patients” Nature Communications (2019) 10:5570). […] EC50 ranges: A: <10 μM; B: >10-50 μM; C: >50-100 μM; D: >100 μM.
`Cn1c(=O)n(C2COC2)c2nc(N3CCC4(CN(c5ccnc(C(F)(F)F)c5)C4)C3)cnc21` [Cmpd 978]: the EC50 (in general, the concentration giving half of the maximal effect) is < 10 µM.
In the case of `Cn1c(=O)n(C2COC2)c2ncc(N3CCC4(CN(c5ccnc(C(F)(F)F)c5)C4)C3)nc21` [Cmpd 979], the EC50 was < 10 µM.
For `CCn1c(=O)n(CC(F)F)c2nc(N3CCC4(CN(c5ccnc(C(F)(F)F)c5)C4)C3)cnc21` [Cmpd 980], the EC50 is < 10 µM.
The compound `CCn1c(=O)n(C2COC2)c2nc(N3CCC4(CN(c5ccnc(C(F)(F)F)c5)C4)C3)cnc21` [Cmpd 981] displayed an EC50 of 10 to 50 µM.
The same measure, in the same setting: to `CCn1c(=O)n(C2COC2)c2ncc(N3CCC4(CN(c5ccnc(C(F)(F)F)c5)C4)C3)nc21` [Cmpd 982] belongs 10 to 50 µM.
As to `CCN1C(=O)N(c2ccnc(C(F)(F)F)c2)C(=O)C12CCN(c1cnc3cnn(C4COC4)c3n1)CC2` [Cmpd 983], the EC50 was 10 to 50 µM.
Same read-out and setting: to `CCN1C(=O)N(c2ccnc(C(F)(F)F)c2)C(=O)C12CCN(c1cnc3c(C)nn(C4COC4)c3n1)CC2` [Cmpd 984] belongs < 10 µM; to `Cc1nn(CC(F)F)c2nc(N3CCC4(CN(c5ccnc(C(F)(F)F)c5)C4)C3)cnc12` [Cmpd 985], > 100 µM; to `FC(F)(F)c1cc(N2CC3(CCN(c4nccc(-c5nncs5)n4)C3)C2)ccn1` [Cmpd 986], < 10 µM.
Same read-out and setting: to `FC(F)(F)c1cc(N2CC3(CCN(c4cnc5cnn(C6COC6)c5n4)C3)C2)ccn1` [Cmpd 987] belongs > 100 µM.
`Cn1c(N2CCC3(CN(c4cnc(C(F)(F)F)nc4)C3)C2)nc2c(cnn2CC(F)F)c1=O` [Cmpd 988]: the EC50 is < 10 µM.
Regarding `Cn1c(N2CCC3(CN(c4ccnc(C(F)(F)F)c4)C3)C2)nc2c(cnn2CC(F)F)c1=O` [Cmpd 989], the EC50 is > 100 µM.
For `CCn1ncc2c(=O)n(C)c(N3CCC4(CN(c5cnc(C(F)(F)F)nc5)C4)C3)nc21` [Cmpd 990], the EC50 is < 10 µM.
The same measure, in the same setting: to `Cn1c(N2CCC3(CN(c4ccnc(C(F)(F)F)n4)C3)C2)nc2c(cnn2CC(F)F)c1=O` [Cmpd 991] belongs < 10 µM; to `Cn1c(N2CCC3(CN(c4ccnc(C(F)(F)F)c4)C3)C2=O)nc2c(cnn2CC(F)F)c1=O` [Cmpd 992], 10 to 50 µM; to `Cn1c(N2CCC3(CN(c4ccnc(C(F)(F)F)c4)C3)C2)nc2c(cnn2C2COC2)c1=O` [Cmpd 993], 50 to 100 µM.
`Cc1nn(CC(F)F)c2nc(N3CCC4(CN(c5ccnc(C(F)(F)F)c5)C4)C3)n(C)c(=O)c12` [Cmpd 994]: the EC50 was < 10 µM.

The assay is the same for the next values; noted with them: activation of GCase, EC50 ranges.
`Cc1nn(C2COC2)c2nc(N3CCC4(CN(c5ccnc(C(F)(F)F)c5)C4)C3)ncc12` [Cmpd 932] had an EC50 of 10 to 50 µM.
Take `FC(F)(F)c1cc(N2CC3(CCN(c4cnc5cnn(C[C@@H]6CCO6)c5n4)C3)C2)ccn1` [Cmpd 933]: the EC50 is < 10 µM.
In the case of `FC(F)(F)c1cc(N2CC3(CCN(c4cnc5cnn(C[C@H]6CCO6)c5n4)C3)C2)ccn1` [Cmpd 934], the EC50 is < 10 µM.
On the same count and under the same terms, to `CCOc1nn(CC(F)F)c2nc(N3CCC4(CN(c5cc(C(F)(F)F)nc(C)n5)C4)C3)cnc12` [Cmpd 935] belongs 50 to 100 µM; to `COc1nn(CC(F)F)c2nc(N3CCC4(CN(c5ccnc(C(F)(F)F)c5)C4)C3)cnc12` [Cmpd 936], < 10 µM; to `CCOc1nn(CC(F)F)c2nc(N3CCC4(CN(c5ccnc(C(F)(F)F)c5)C4)C3)cnc12` [Cmpd 937], < 10 µM.
On to `COc1nn(CC(F)F)c2nc(N3CCC4(CN(c5ccnc(C(F)(F)F)c5)C4)C3)ncc12` [Cmpd 938], for which the EC50 lay in the range of 10 to 50 µM.
`CCOc1nn(CC(F)F)c2nc(N3CCC4(CN(c5ccnc(C(F)(F)F)c5)C4)C3)ncc12` [Cmpd 939]: the EC50 is < 10 µM.
For the compound `COc1nn(CC(F)F)c2nc(N3CCC4(CC3)CC(=O)N(c3ccnc(C(F)(F)F)c3)C4)cnc12` [Cmpd 940], the EC50 was < 10 µM.
Consider `CCOc1nn(CC(F)F)c2nc(N3CCC4(CC3)CC(=O)N(c3ccnc(C(F)(F)F)c3)C4)cnc12` [Cmpd 941], for which the EC50 is < 10 µM.
As for `COc1nn(CC(F)F)c2nc(N3CCC4(CC3)CC(=O)N(c3nccc(C(F)(F)F)n3)C4)cnc12` [Cmpd 942], the EC50 was 10 to 50 µM.
Still for that read-out and setting: to `COc1nn(C2COC2)c2nc(N3CCC4(CN(c5ccnc(C(F)(F)F)c5)C4)C3)cnc12` [Cmpd 943] belongs < 10 µM; to `CCOc1nn(C2COC2)c2nc(N3CCC4(CN(c5ccnc(C(F)(F)F)c5)C4)C3)cnc12` [Cmpd 944], < 10 µM.
With `COc1nn(C2COC2)c2nc(N3CCC4(CN(c5ccnc(C(F)(F)F)c5)C4)C3)ncc12` [Cmpd 945], the EC50 lay in the range of 10 to 50 µM.
`CCOc1nn(C2COC2)c2nc(N3CCC4(CN(c5ccnc(C(F)(F)F)c5)C4)C3)ncc12` [Cmpd 946]: the concentration giving a half-maximal response (EC50) lay in the range of 10 to 50 µM.
Same read-out and setting: to `CCOc1nn(CC(F)F)c2nc(N3CCC4(CC3)CC(=O)N(c3ccc(C(F)(F)F)nc3)C4)cnc12` [Cmpd 947] belongs < 10 µM; to `COc1nn(CC(F)F)c2nc(N3CCC4(CC3)CC(=O)N(c3ccc(C(F)(F)F)nc3)C4)ncc12` [Cmpd 948], 10 to 50 µM; to `CCOc1nn(CC(F)F)c2nc(N3CCC4(CC3)CC(=O)N(c3ccc(C(F)(F)F)nc3)C4)ncc12` [Cmpd 949], 10 to 50 µM.
For the compound `COc1nn(C2COC2)c2nc(N3CCC4(CC3)CC(=O)N(c3ccc(C(F)(F)F)nc3)C4)cnc12` [Cmpd 950], the EC50 is > 100 µM.
The same measure, in the same setting: as for `CCOc1nn(C2COC2)c2nc(N3CCC4(CC3)CC(=O)N(c3ccc(C(F)(F)F)nc3)C4)cnc12` [Cmpd 951], the figure is < 10 µM.
The same measure, in the same setting: as for `COc1nn(C2COC2)c2nc(N3CCC4(CC3)CC(=O)N(c3ccc(C(F)(F)F)nc3)C4)ncc12` [Cmpd 952], the figure is 10 to 50 µM; as for `CCOc1nn(C2COC2)c2nc(N3CCC4(CC3)CC(=O)N(c3ccc(C(F)(F)F)nc3)C4)ncc12` [Cmpd 953], 10 to 50 µM; as for `O=C1CC2(CCN(c3cnc4cnn(CC(F)F)c4n3)CC2)C(CCF)N1c1ccnc(C(F)(F)F)c1` (stereo not drawn) [Cmpd 954], 10 to 50 µM.
Consider `O=C1CC2(CCN(c3cnc4cnn(CC(F)F)c4n3)CC2)C(CC(F)F)N1c1ccnc(C(F)(F)F)c1` (stereo not drawn) [Cmpd 955], for which the concentration for a half-maximal effect (EC50) is < 10 µM.
Same read-out and setting: to `Cc1cnc(C(F)(F)F)nc1N1CC2(CCN(c3cnc4cnn(CC(F)F)c4n3)CC2)CC1=O` [Cmpd 956] belongs > 100 µM.
Still for that read-out and setting: as for `Cc1nc(C(F)(F)F)ncc1N1CC2(CCN(c3cnc4cnn(CC(F)F)c4n3)C2)C1` [Cmpd 957], the figure is 10 to 50 µM; as for `FC(F)Cn1ncc2ncc(N3CCC4(CN(c5cnc(C(F)F)nc5)C4)C3)nc21` [Cmpd 958], < 10 µM.
The compound `Cc1nc(OCC(F)(F)F)ncc1N1CC2(CCN(c3cnc4cnn(CC(F)F)c4n3)C2)C1` [Cmpd 959] gave an EC50 of 10 to 50 µM.
Still for that read-out and setting: to `FC(F)Cn1ncc2ncc(N3CCC4(CN(c5ccnc(OCC(F)(F)F)n5)C4)C3)nc21` [Cmpd 960] belongs 10 to 50 µM; to `Cc1cnc(C(F)(F)F)nc1N1CC2(CCN(c3cnc4cnn(CC(F)F)c4n3)C2)C1` [Cmpd 961], 10 to 50 µM; to `FC(F)(F)c1cc(N2CC3(CCN(c4ncc5cnn(C6COC6)c5n4)C3)C2)ccn1` [Cmpd 962], 10 to 50 µM.
Take `O=C1CC2(CCN(c3cnc4cnn(CC(F)F)c4n3)CC2)CN1Cc1ncc(C(F)(F)F)cc1F` [Cmpd 963]: the EC50 is < 10 µM.
For the compound `CC(c1ccc(C(F)(F)F)cn1)N1CC2(CCN(c3cnc4cnn(CC(F)F)c4n3)CC2)CC1=O` (stereo not drawn) [Cmpd 964], the EC50 was < 10 µM.
With `CC(c1ccc(C(F)(F)F)nc1)N1CC2(CCN(c3cnc4cnn(CC(F)F)c4n3)CC2)CC1=O` (stereo not drawn) [Cmpd 965], the EC50 fell in the range of 10 to 50 µM.
With `O=C1CC2(CCN(c3cnc4cnn(CC(F)F)c4n3)CC2)CN1Cc1ccnc(C(F)(F)F)c1F` [Cmpd 966], the half-maximal effective concentration (EC50) was < 10 µM.
As to `CC(c1ccc(Cl)cn1)N1CC2(CCN(c3cnc4cnn(CC(F)F)c4n3)CC2)CC1=O` (stereo not drawn) [Cmpd 967], the EC50 was < 10 µM.
As to `CC(c1cncc(Cl)c1)N1CC2(CCN(c3cnc4cnn(CC(F)F)c4n3)CC2)CC1=O` (stereo not drawn) [Cmpd 968], the EC50 is < 10 µM.
Regarding `CC(c1ccnc(C(F)(F)F)c1)N1CC2(CCN(c3cnc4cnn(CC(F)F)c4n3)CC2)CC1=O` (stereo not drawn) [Cmpd 969], the EC50 is < 10 µM.
`COc1nccc(CN2CC3(CCN(c4cnc5cnn(CC(F)F)c5n4)CC3)CC2=O)n1` [Cmpd 970] returned an EC50 of 50 to 100 µM.
As for `O=C1CC2(CCN(c3cnc4cnn(CC(F)F)c4n3)CC2)CN1Cc1ccnc(OCC(F)(F)F)n1` [Cmpd 971], the EC50 was < 10 µM.
With `Cc1cc(CN2CC3(CCN(c4cnc5cnn(CC(F)F)c5n4)CC3)CC2=O)on1` [Cmpd 972], the EC50 lay within 10 to 50 µM.
Regarding `CCc1sc(C(F)(F)F)nc1N1CC2(CCN(c3cnc4cnn(CC(F)F)c4n3)CC2)CC1=O` [Cmpd 973], the EC50 fell in the range of 10 to 50 µM.
Turning to `Cc1ncc(CN2CC3(CCN(c4cnc5cnn(CC(F)F)c5n4)CC3)CC2=O)o1` [Cmpd 974], the EC50 fell in the range of 50 to 100 µM.
On to `Cc1cnc(CN2CC3(CCN(c4cnc5cnn(CC(F)F)c5n4)CC3)CC2=O)s1` [Cmpd 975], for which the EC50 lay within 10 to 50 µM.
As to `CCc1cnc(CN2CC3(CCN(c4cnc5cnn(CC(F)F)c5n4)CC3)CC2=O)s1` [Cmpd 976], the EC50 was < 10 µM.
In turn, `Cn1c(=O)n(CC(F)F)c2nc(N3CCC4(CN(c5ccnc(C(F)(F)F)c5)C4)C3)cnc21` [Cmpd 977] displayed an EC50 of 10 to 50 µM.
